# Measurements: the SangsterLogP compilation
# Test: method code SF-AS, from DOI: 10.1021/je200827u
# Conditions: pH 5.8
row,Structure (SMILES),logD
1,O=C(NN=C1CCCC1)c1ccncc1,0.22
2,CC(C)Sc1nc2ccccc2[nH]1,3.25
3,CCSc1nc2ccccc2n1CC,3.43
4,CCSc1nc2ccccc2[nH]1,2.67
5,CC1CCC(=NNC(=O)c2ccncc2)CC1 (stereo unspecified),0.74
6,O=[N+]([O-])c1cc(CSc2nc3ccccc3[nH]2)cc([N+](=O)[O-])c1,3.14

# Test: not given
# Conditions: not given
row,Structure (SMILES),logP
1,c1ccc(CSc2nc3ccccc3[nH]2)cc1,3.92
2,NNC(=O)c1ccnc(NN)c1,-0.57
3,O=C(NN=C1CCCCC1)c1ccncc1,0.27
4,CC(=O)NNC(=O)c1ccncc1,-0.87
5,c1ccc(C(Sc2nc3ccccc3[nH]2)c2ccccc2)cc1,4.9
